From patent US20080254445A1, “Prognosis in Cancer Patients Vaccinated with a Cancer Antigen Peptide-Associated Agent” (priority 2003, published 2008) come the findings set out here.

Assay [1] in a line: Delayed type hypersensitivity (DTH) skin test. Conditions: skin test site, first to 6th vaccination; positive cases/No. of tested cases (% positive). In kind it is in vivo, human.
Another assay concerns peptide-reactive IgG. The experiment in a line: ELISA of peptide-reactive serum IgG in pre- and post-vaccination sera. Format: in vivo, human. The settings on record: post (3rd and 6th)-vaccination sera vs pre-vaccination; positive cases/No. of tested cases (% positive). In general terms: In an ELISA, binding on a coated surface is turned into a signal by an enzyme label.
Assay [2] concerns peptide-specific CTL precursors in PBMCs. The experiment in a line: Peptide-specific CTL precursors in pre- and post (6th)-vaccination PBMCs by IFN-γ-release assay. In kind it is cell-based, human. The settings on record: post (6th)-vaccination PBMC; positive cases/No. of tested cases (% positive).

For ILGELREKV [WHSC141], in assay [1], the “Increased immune reactions to peptide: DTH response” value is reported as 0/8.

Turning to AFLRHAAL [ART4 13], the “Increased immune reactions to peptide: DTH response” value in assay [1] was 0/4. Moreover, the “Increased immune reactions to peptide: IgG antibody” value with peptide-reactive IgG was 0/2. In addition, in assay [2], the “Increased immune reactions to peptide: CTL activity” value is reported as 0/1.

Take KFHRVIKDF [CypB84]: the “Increased immune reactions to peptide: DTH response” value in assay [1] is listed as 0/4. In assay [2], the “Increased immune reactions to peptide: CTL activity” value was 0/3.

For DVWSFGILL [Ick422], the “Increased immune reactions to peptide: IgG antibody” value in the assay with peptide-reactive IgG is 0/10.

For RIIYDRKFL [EIF51], the “Increased immune reactions to peptide: DTH response” value in assay [1] is 0/1. Moreover, the “Increased immune reactions to peptide: CTL activity” value in assay [2] is listed as 0/1.

As for ALVEFEDVL [HNRPL140], in assay [1], the “Increased immune reactions to peptide: DTH response” value is listed as 0/5. In addition, the “Increased immune reactions to peptide: IgG antibody” value with peptide-reactive IgG is on record as 0/5. For the same sequence, the “Increased immune reactions to peptide: CTL activity” value in assay [2] is recorded as 0/5.

As for KLVERLGAA [Ick246], in assay [1], the “Increased immune reactions to peptide: DTH response” value is 0/7.

For KLKHYGPGWV [CypB129], in assay [2], the “Increased immune reactions to peptide: CTL activity” value is given as 0/6.

Turning to LLQAEAPRL [SART3 302], the “Increased immune reactions to peptide: DTH response” value in assay [1] is given as 0/6. Also, in the assay on peptide-reactive IgG, the “Increased immune reactions to peptide: IgG antibody” value is recorded as 0/5. Also, the “Increased immune reactions to peptide: CTL activity” value in assay [2] is on record as 0/4.

Consider ILPRKHHRI [UBE208], for which the “Increased immune reactions to peptide: DTH response” value in assay [1] is reported as 0/1. Further, in assay [2], the “Increased immune reactions to peptide: CTL activity” value is 0/1.

In the case of DYSARWNEI [SART2 93], the “Increased immune reactions to peptide: DTH response” value in assay [1] is 0/19.

Regarding SYTRLFLIL [SART2 899], the “Increased immune reactions to peptide: CTL activity” value in assay [2] is recorded as 0/7.

Regarding RLAEYQAYI [SART3 309], the “Increased immune reactions to peptide: DTH response” value in assay [1] is given as 0/9. The “Increased immune reactions to peptide: CTL activity” value in assay [2] is on record as 0/6.

In the case of DYPSLSATDI [ART4 75], the “Increased immune reactions to peptide: IgG antibody” value in the assay with peptide-reactive IgG is recorded as 0/15.

As for EYCLKFTKL [ART1 170], the “Increased immune reactions to peptide: DTH response” value in assay [1] was 0/9. Further, the “Increased immune reactions to peptide: CTL activity” value in assay [2] was 0/7.

Regarding ASLDSDPWV [WHSC103], in assay [2], the “Increased immune reactions to peptide: CTL activity” value is given as 0/6.

Take LIADFLSGL [UBE85]: the “Increased immune reactions to peptide: DTH response” value in assay [1] is recorded as 0/2.

As to DFMIQGGDF [CypB91], the “Increased immune reactions to peptide: CTL activity” value in assay [2] is listed as 0/17.
